Experiments:
[1] = target: T1, human β3 adrenergic receptor (Homo sapiens, UniProt P13945); test: cAMP (SPA) response in CHO cells transfected with human β3 adrenergic receptor; type: cell-based; set-up: key: fraction of maximal isoproterenol (10^-5 M) response; details: maximal response relative to maximal response of isoproterenol at 10^-5 M
T1 construct: Full length β3 AR clones (402 amino acids) containing the last 6 amino acids of hβ3-AR are prepared; expressed in transfected cells; host or cells: CHO (Chinese hamster ovary) cells
Summary of the method: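 Reactions were stopped with 0.2N HCl and neutralised, and cAMP was measured by SPA. Activity is expressed as percent of the maximal 10^−5 M isoproterenol response.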

T1 sequence (P13945 whole entry): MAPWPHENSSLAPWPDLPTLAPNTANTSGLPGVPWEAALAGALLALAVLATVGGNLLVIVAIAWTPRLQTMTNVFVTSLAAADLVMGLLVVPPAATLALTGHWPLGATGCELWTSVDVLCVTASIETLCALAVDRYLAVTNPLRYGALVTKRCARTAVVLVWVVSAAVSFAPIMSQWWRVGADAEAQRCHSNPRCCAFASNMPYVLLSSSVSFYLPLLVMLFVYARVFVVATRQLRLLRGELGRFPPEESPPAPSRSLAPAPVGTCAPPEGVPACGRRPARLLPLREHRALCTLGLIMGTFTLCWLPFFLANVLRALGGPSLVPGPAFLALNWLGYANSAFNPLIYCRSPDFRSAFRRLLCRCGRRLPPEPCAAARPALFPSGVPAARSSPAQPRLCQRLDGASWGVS

IA(β3) [1]	melting point	SMILES
0.97	> 85 °C (dec.)	CCOC(=O)[C@H](CC(C)C)NC(=O)c1ccc(N2CCC(NC[C@H](O)c3ccc(O)c(NS(C)(=O)=O)c3)CC2)cc1 [Example 198, (2S)-2-(4-{4-[(2R)-2-Hydroxy-2-(4-hydroxy-3-methanesulfonylamino-phenyl)-ethylamino]-piperidin-1-yl}-benzoylamino)-4-methyl-pentanoic acid ethyl ester:]
0.97	> 75 °C (dec.)	COC(=O)CNC(=O)c1ccc(N2CCC(NC[C@H](O)c3ccc(O)c(NS(C)(=O)=O)c3)CC2)cc1 [Example 208, Methyl[(4-{4-[((2R)-2-hydroxy-2-{4-hydroxy-3-[(methylsulfonyl)amino]phenyl}ethyl)amino]-1-piperidinyl}benzoyl)amino]acetate]
0.89	190 to 201 °C	CCCC(=O)Nc1ccc(N2CCC(NC[C@H](O)COc3cccc4[nH]c(=O)[nH]c34)CC2)cc1 [Example 386, N-{4-[4-({(2S)-2-Hydroxy-3-[(2-oxo-2,3-dihydro-1H-benzimidazol-4-yl)oxy]propyl}-amino)-1-piperidinyl]phenyl}butanamide]
0.81	217 to 223 °C	O=C(Nc1ccc(N2CCC(NC[C@H](O)COc3cccc4[nH]c5ccccc5c34)CC2)cc1)c1ccc2c(c1)OCO2 [Example 391, N-[4-(4-{[(2S)-3-(9H-Carbazol-4-yloxy)-2-hydroxypropyl]amino}-1-piperidinyl)phenyl]-1,3-benzodioxole-5-carboxamide]

Second part, the molecule before the results:

SMILES	IA(β3) [1]	melting point
O=C1NC(=O)C(Cc2ccc(N3CCC(NC[C@H](O)COc4cccc5[nH]c(=O)[nH]c45)CC3)cc2)S1 (stereo partly drawn) [Example 80, 5-(4-{4-[(2S)-2-Hydroxy-3-(2-oxo-2,3-dihydro-1H-benzoimidazol-4-yloxy)-propylamino]-piperidin-1-yl}-benzyl)-thiazolidine-2,4-dione]	1.1	173 to 175 °C (dec.)
O=C1NC(=O)C(Cc2ccc(N3CCC(NC[C@H](O)COc4ccccc4)CC3)cc2)S1 (stereo partly drawn) [Example 73, 5-[4-[4-((2S)-2-Hydroxy-3-phenoxy-propylamino)-piperidin-1-yl]-benzyl}-thiazolidin-2,4-dione]	0.71	218 to 220 °C
O=C1NC(=O)C(=Cc2ccc(N3CCC(NC[C@H](O)COc4cccc5[nH]c(=O)[nH]c45)CC3)cc2)S1 [Example 75, 5-(4-{4-[(2S)-2-Hydroxy-3-(2-oxo-2,3-dihydro-1H-benzoimidazol-4-yloxy)-propylamino]-piperidin-1-yl}-benzylidene)-thiazolidine-2,4-dione]	1.08	> 240 °C (dec.)
CS(=O)(=O)Nc1cc(C(O)CNC2CCN(c3ccc(CC4NC(=O)NC4=O)cc3)CC2)ccc1O (stereo not shown) [Example 87, N-[5-(2-{1-[4-(2,5-Dioxo-imidazolidin-4-ylmethyl)-phenyl]-piperidin-4-ylamino}-1-hydroxy-ethyl)-2-hydroxy-phenyl]-methanesulfonamide]	1	> 105 °C (dec.)
O=C1NC(=O)C(Cc2ccc(N3CCC(NCC(O)COc4cccc5[nH]c(=O)[nH]c45)CC3)cc2)N1 (stereo not shown) [Example 86]	0.69	> 132 °C (dec.)
CCOC(=O)c1ccc(N2CCC(NC[C@H](O)COc3cccc4[nH]c(=O)[nH]c34)CC2)cc1 [Example 179]	0.85	> 170 °C (dec.)
CCOC(=O)CNC(=O)c1ccc(N2CCC(NC[C@H](O)c3ccc(O)c(NS(C)(=O)=O)c3)CC2)cc1 [Example 196, Ethyl[(4-{4-[((2R)-2-hydroxy-2-{4-hydroxy-3-[(methylsulfonyl)amino]phenyl}ethyl)amino]-1-piperidinyl}benzoyl)amino]acetate]	1.1	> 140 °C (dec.)
